{"source": "patent US20250296961A1", "about": "“ANTIMICROBIAL PEPTIDES FOR REMINERALIZATION OF TEETH AND PREVENTION OF DENTAL CARIES” (The University of Hong Kong, priority 2021, published 2025)", "key": {"[1]": {"system": "S. mutans", "experiment": "Anti-planktonic bacterial ability, MIC and MBC (Example 1)", "format": "cell-based, Streptococcus mutans (ATCC 35668)", "procedure": "(§1) Streptococcus mutans (ATCC 35668, ATCC, Manassas, USA) were cultured in Horse Blood Medium under anaerobic (85% N2, 10% H2, and 5% CO2) conditions at 37° C. Cells were harvested by centrifugation (5000 rpm, 10 min), washed once with 10 mM sodium phosphate-buffered saline (PBS, pH 7.2), and resuspended in brain-heart infusion broth (BHI, Difco Laboratories, Detroit, USA) at a concentration of 10^6 CFU/mL.\nTwo-fold serial dilutions (in 10 mM HEPES) of P-113, P-113-DPS, P-113-DA, P-113-SK, and Sp-H5 prepared in 25% BHI medium were pipetted into a 96-well cell culture plate at final concentrations from 0.125-128 μmol/mL [100 μL/well]. Each well was seeded with 10 μL bacterial suspension at a final concentration of 10^6 CFU/mL. Sp-H5 with bacterial cells and 25% BHI medium with and without bacterial cells in 10 mM HEPES buffer (pH 7) were used as the positive, negative, and blank control group, respectively. After a 24-h incubation, absorbance was measured at 595 nm using a microplate reader to assess cell growth. […] The minimal bactericidal concentration (MBC) was defined as the lowest concentration of peptide resulting in no colony formation on agar plates after incubation. 10 μL of cell suspension from each well were plated on horse blood agar plates and incubated at 37° C. for 48 h. All determinations were conducted in triplicate experiments."}, "[2]": {"experiment": "Demineralization assay of peptide-coated enamel (Example 1)", "set-up": "species or system human", "settings": "demineralization solution 7 days", "procedure": "3×3×1.5 mm^3 (number: 197) tooth slices were prepared using a water-cooled diamond saw (IsoMet low-speed saw, Buehler, Lake Bluff, IL, USA). One working surface of complete enamel tissue from each tooth slice was generated using the MicroCT Skyscan 1172 (Bruker MicroCT, Kontich, Belgium). The enamel working side of the tooth slice was polished and other sides marked with acid-proof nail polish. All tooth slices were cleaned and stored in deionized water at 4° C.\nTooth slices (N=30) were immersed in 8 μmol/mL P-113, P-113-DPS, P-113-DA, P-113-SK, Sp-H5 (n=5 for each) solutions (in 10 mM HEPES) or HEPES (control) overnight. Tooth slices were incubated in 2 mL demineralization solution (2.2 mM CaCl2), 2.2 mM NaH2PO4, 0.05 M acetic acid, pH 4.5) for 7 days at 37° C. Lesions depths were analyzed by MicroCT Skyscan 1172. Mineral calcium (Ca) or phosphorus (P) concentrations before and after immersion were measured using Inductively Coupled Plasma Optical Emission Spectrometer (ICP-OES; Spectro Arcos, Kleve, Germany). Ca/P loss was expressed as mM/cm^2. The mean values of Ca/P loss were analyzed for each group using ANOVA at the 1% c significance level."}, "[3]": {"experiment": "Adsorption capacity assay: peptides with HA particles (Micro BCA)", "format": "binding", "procedure": "The adsorption of P-113, P-113-DPS, P-113-DA, and P-113-SK to HA particles (Sigma Chemical Co., St Louis, USA) was measured using the Micro BCA method with Sp-H5 as the control group. Solutions of P-113, P-113-DPS, P-113-DA, P-113-SK and Sp-H5 in 10 mM HEPES buffer (pH 7) were diluted to 10 nmol/mL concentrations, and 200 μL was placed into each tube (P-113, N=10; P-113-DPS, N=10; P-113-DA, N=10; P-113-SK, N=10; and Sp-H5, N=10). Peptide solutions were mixed with (n=5) or without (n=5) HA particles (20 mg/tube) in each group. Tubes were placed onto a rotator overnight at 37° C. for complete reaction. Tubes containing the peptide solution and HA were centrifuged (13000 rpm, 1 min) and the supernatant collected. Bovine serum albumin (BSA) standard solutions (working range=5-250 μg/mL) and working reagent were prepared using the Pierce BCA Protein Assay Kit (Rockford, IL, USA). Working reagents (100 μL/well) were added to a 96-well plate, followed by standard and peptide solutions (100 μL/well). The Plate was incubated in the dark for 30 min and the absorbance (562 nm) measured using a plate reader. The concentration (C) of the BSA standard solution was linear with the absorbance (A) at 562 nm. The function of C=a*A+b was determined (a and b as constants). The final concentration (the peptide solution mixed with HA) and the initial concentration (the peptide solution without HA) were computed using the function and the generated absorbance data of the peptide solution mixed with and without HA."}, "[4]": {"system": "S. mutans biofilms", "format": "cell-based", "procedure": "as §1\nS. mutans biofilms were cultured on enamel working surfaces in a 96-well plate. Tooth slices (N=32) were autoclave-sterilized prior to anti-biofilm activity testing. 200 μL S. mutans in BHI (10^6 CFU/mL) was added to each well. After a 24-h incubation at 37° C., each tooth slice was washed once with PBS. […] (in 10 mM HEPES). After incubation, tooth slices were washed once with PBS. One tooth slice at random in each group was stained with the LIVE/DEAD BacLight Bacterial Viability Kit (L7012, Thermo Fisher Scientific, Waltham, USA) and incubated in the dark for 30 min. Fluorescence images were obtained using confocal laser scanning microscopy (CLSM, Fluoview 1000, Olympus, USA). A separate tooth slice was used for the counting of colony-forming units (CFU). Tooth slices were placed in 1 mL BHI solution, and adherent biofilms were removed from the enamel surfaces by sonication for 30 sec. Ten-fold serial dilutions of the suspensions were plated in duplicate on horse blood agar. CFU's were counted after 48-h incubation. Three independent biofilm experiments were performed."}}, "note": "Where two headings read alike, the source gives them in different places."}
{"sequence": "AKRHHGYKRKFH [Peptide P-113, non-specific AMP, portion of human histatin 5]", "values": [{"measurement": "MBC", "setting": "[1]", "value": ">128", "unit": "μM mL^−1"}, {"measurement": "MIC", "setting": "[1]; 24 h", "value": 32, "unit": "μM mL^−1"}, {"measurement": "Maximum lesion depth", "setting": "[2]; 8 μmol/mL coating, MicroCT", "value": 115, "unit": "μm"}, {"measurement": "Ca losses vs control group", "setting": "[2]", "value": "Significant differences were not detected"}, {"measurement": "Concentration change (95% CI)", "setting": "[3]; initial vs final concentration with HA particles", "value": "0.29 (−0.01-0.61)"}, {"measurement": "Final concentration (Mean ± SD)", "setting": "[3]; peptide solution mixed with HA particles (20 mg/tube), overnight 37° C.", "value": "9.86 ± 0.23", "unit": "nM mL^−1"}, {"measurement": "S. mutans killed (biofilm)", "setting": "[4]; 128 μmol/mL, 24 h exposure", "value": 79, "unit": "%"}, {"measurement": "S. mutans killed (biofilm)", "setting": "[4]; 160 μmol/mL", "value": 87, "unit": "%"}, {"measurement": "CLSM live/dead state of S. mutans biofilm", "setting": "[4]; 24 h, concentration not given", "value": "the majority of S. mutans in BHI and P-113 were alive"}]}
